In PubChem BioAssay (NCI):
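Method: 48-hour compound exposure of cells in 96-well plates, five concentrations, linear interpolation of endpoints. At the TGI there is no net growth.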

Experiments:
Assay in all cases: NCI anticancer screen, dose series, 48 h
[1] = test system: MDA-N
[2] = test system: UACC-62 melanoma
[3] = test system: SK-MEL-2 melanoma
[4] = test system: RXF 393 renal
[5] = test system: 786-0 renal
[6] = test system: SK-OV-3 ovarian
[7] = test system: KM12 colon
[8] = test system: SK-MEL-28 melanoma
[9] = test system: A549 NSCLC
[10] = test system: NCI-H226 lung
[11] = test system: K-562 leukemia

SMILES: COc1ccc(Oc2cnn(C(Br)(Br)C(C)=O)c(=O)c2Br)cc1
- TGI [1]: 22.9 µM
- TGI [2]: 29.6 µM
- TGI [3]: 31.4 µM
- TGI [4]: 16.8 µM
- TGI [5]: 27.4 µM
- TGI [6]: > 64.3 µM
- TGI [7]: 31.4 µM
- TGI [8]: 32.4 µM
- TGI [9]: 60.7 µM
- TGI [10]: 46.6 µM
- TGI [11]: 16.9 µM

SMILES: C[C@]12CC[C@@H]3c4ccc(O)cc4CC[C@H]3[C@@H]1C/C(=C\c1ccc(C#N)cc1)C2=O
- TGI [1]: > 100 µM
- TGI [2]: > 100 µM
- TGI [3]: > 100 µM
- TGI [4]: 52.6 µM
- TGI [5]: > 100 µM
- TGI [6]: > 100 µM
- TGI [7]: > 100 µM
- TGI [8]: > 100 µM
- TGI [9]: > 100 µM
- TGI [10]: > 100 µM
- TGI [11]: > 100 µM

SMILES: O=C1c2cccc(O)c2C(=O)c2c(OC3OC(CO)C(O)C(O)C3O)cccc21 (centres undefined)
- TGI [1]: > 100 µM
- TGI [2]: > 100 µM
- TGI [3]: > 100 µM
- TGI [4]: 97.3 µM
- TGI [5]: > 100 µM
- TGI [6]: > 100 µM
- TGI [7]: > 100 µM
- TGI [8]: > 100 µM
- TGI [9]: > 100 µM
- TGI [10]: > 100 µM
- TGI [11]: > 100 µM

SMILES: CC(C)C1=C(O)C2=C(C(=O)C1=O)C1(C)CCCC(C)(C)C1C(O)C2OC=O (centres undefined)
- TGI [1]: 28.1 µM
- TGI [2]: 19.4 µM
- TGI [3]: 28.6 µM
- TGI [4]: 20.2 µM
- TGI [5]: 19 µM
- TGI [6]: 27.1 µM
- TGI [7]: 24.7 µM
- TGI [8]: 13.1 µM
- TGI [9]: 35.8 µM
- TGI [10]: 20.2 µM
- TGI [11]: > 100 µM

SMILES: COC1C(O)C(O[C@H]2CC[C@@]3(C)C(CC[C@@H]4[C@@H]3CC[C@]3(C)[C@@H](C(C)OC5OC(CO)C(O)C(O)C5O)CC[C@]43O)C2)OC(C)C1OC1OC(CO)C(O)C(O)C1O (some centres undefined)
- TGI [1]: > 100 µM
- TGI [2]: > 100 µM
- TGI [3]: > 100 µM
- TGI [4]: > 100 µM
- TGI [5]: > 100 µM
- TGI [6]: > 100 µM
- TGI [7]: > 100 µM
- TGI [8]: > 100 µM
- TGI [9]: > 100 µM
- TGI [10]: > 100 µM
- TGI [11]: > 100 µM

SMILES: CN(C)CCCNC(=O)c1c(O)c2ccccc2n(C)c1=O
- TGI [1]: > 100 µM
- TGI [2]: > 100 µM
- TGI [3]: > 100 µM
- TGI [4]: > 100 µM
- TGI [5]: > 100 µM
- TGI [6]: > 100 µM
- TGI [7]: > 100 µM
- TGI [8]: > 100 µM
- TGI [9]: > 100 µM
- TGI [10]: > 100 µM
- TGI [11]: > 100 µM

SMILES: O=S1SC(=S)C2C=CC=CC21 (centres undefined)
- TGI [1]: > 100 µM
- TGI [2]: > 100 µM
- TGI [3]: > 100 µM
- TGI [4]: > 100 µM
- TGI [5]: > 100 µM
- TGI [6]: > 100 µM
- TGI [7]: > 100 µM
- TGI [8]: > 100 µM
- TGI [9]: > 100 µM
- TGI [10]: > 100 µM
- TGI [11]: > 100 µM

SMILES: CC1(C)CC(C#Cc2ccccc2)CC(C)(C)N1O
- TGI [1]: 29.9 µM
- TGI [2]: 42.5 µM
- TGI [3]: 43.6 µM
- TGI [4]: 63.4 µM
- TGI [5]: 76.7 µM
- TGI [6]: > 100 µM
- TGI [7]: 36.1 µM
- TGI [8]: 32.8 µM
- TGI [9]: 75.5 µM
- TGI [10]: 53.6 µM
- TGI [11]: > 100 µM

SMILES: CC(=O)n1nc(-c2ccccc2)n(/N=C/c2ccc([N+](=O)[O-])o2)c1=O
- TGI [1]: 3.92 µM
- TGI [2]: 23.8 µM
- TGI [3]: 11.5 µM
- TGI [4]: 10.4 µM
- TGI [5]: 7.97 µM
- TGI [6]: 40.2 µM
- TGI [7]: 36.4 µM
- TGI [8]: 22.3 µM
- TGI [9]: 25 µM
- TGI [10]: > 19.8 µM
- TGI [11]: 37 µM

SMILES: CCN(CCCl)c1cc(CN(C)C)cc(NC(=O)c2ccc(C(=O)Nc3cccc(CN(C)C)c3)cc2)c1
- TGI [1]: 0.685 µM
- TGI [2]: 4.07 µM
- TGI [3]: 1.61 µM
- TGI [4]: 0.82 µM
- TGI [5]: 2.35 µM
- TGI [6]: > 100 µM
- TGI [7]: 3.69 µM
- TGI [8]: 5.2 µM
- TGI [9]: 14.5 µM
- TGI [10]: 17.2 µM
- TGI [11]: 1.42 µM

SMILES: O=C(CC(=O)Nc1ccccc1)NNC(c1cc(N=Nc2ccc(Br)cc2)ccc1O)P(O)O (centres undefined)
- TGI [1]: > 10 µM
- TGI [2]: 9.13 µM
- TGI [3]: > 10 µM
- TGI [4]: > 10 µM
- TGI [5]: > 10 µM
- TGI [6]: > 10 µM
- TGI [7]: > 10 µM
- TGI [8]: > 10 µM
- TGI [9]: > 10 µM
- TGI [10]: 9.43 µM
- TGI [11]: > 10 µM

SMILES: Nc1nc(Nc2ccccc2)sc1C(=O)c1ccco1
- TGI [1]: 33.9 µM
- TGI [2]: 40.1 µM
- TGI [3]: 36.7 µM
- TGI [4]: 30.8 µM
- TGI [5]: 31.7 µM
- TGI [6]: 93.6 µM
- TGI [7]: 23.5 µM
- TGI [8]: 67.1 µM
- TGI [9]: 43.2 µM
- TGI [10]: 55.3 µM
- TGI [11]: 57.7 µM

SMILES: COc1cc2[nH]c(-c3ccccc3)cc(=O)c2c(OC)c1OC
- TGI [1]: > 100 µM
- TGI [2]: > 100 µM
- TGI [3]: > 100 µM
- TGI [4]: > 100 µM
- TGI [5]: > 100 µM
- TGI [6]: > 100 µM
- TGI [7]: > 100 µM
- TGI [8]: > 100 µM
- TGI [9]: > 100 µM
- TGI [10]: > 100 µM
- TGI [11]: > 100 µM

SMILES: CC(C)=CCC[C@@H](C)C1=C(O)C(N)=C(C)C(=O)C1=O
- TGI [1]: > 100 µM
- TGI [2]: > 93.4 µM
- TGI [3]: > 100 µM
- TGI [4]: > 100 µM
- TGI [5]: > 100 µM
- TGI [6]: > 100 µM
- TGI [7]: > 100 µM
- TGI [8]: > 100 µM
- TGI [9]: > 100 µM
- TGI [10]: > 100 µM
- TGI [11]: > 100 µM

SMILES: C[n+]1c(/C=C/c2ccc(O)c3ncccc23)[se]c2ccccc21
- TGI [1]: 25.4 µM
- TGI [2]: 18.3 µM
- TGI [3]: 18.3 µM
- TGI [4]: 37.8 µM
- TGI [5]: 24.4 µM
- TGI [6]: 23.4 µM
- TGI [7]: 25.2 µM
- TGI [8]: 52.9 µM
- TGI [9]: 42 µM
- TGI [10]: 30.5 µM
- TGI [11]: 44.4 µM

SMILES: O=C(OCC1OC(n2nc(Cn3nnc(-c4cccnc4)n3)n(-c3cccc4ccccc34)c2=S)C(OC(=O)c2ccccc2)C1OC(=O)c1ccccc1)c1ccccc1 (centres undefined)
- TGI [1]: > 100 µM
- TGI [2]: > 100 µM
- TGI [3]: > 100 µM
- TGI [4]: > 100 µM
- TGI [5]: > 100 µM
- TGI [6]: > 100 µM
- TGI [7]: > 100 µM
- TGI [8]: > 100 µM
- TGI [9]: > 100 µM
- TGI [10]: > 100 µM
- TGI [11]: > 100 µM

SMILES: Cc1cc(O)c(-c2cc(O)c(C)cc2O)cc1O
- TGI [1]: 22.9 µM
- TGI [2]: 29.8 µM
- TGI [3]: 33 µM
- TGI [4]: 5.93 µM
- TGI [5]: 8.55 µM
- TGI [6]: 30.5 µM
- TGI [7]: 27.5 µM
- TGI [8]: 22.7 µM
- TGI [9]: 49.5 µM
- TGI [10]: 46.4 µM
- TGI [11]: 4.65 µM

SMILES: CN1N=C(c2ccncc2)OC1c1ccccc1F (centres undefined)
- TGI [1]: > 100 µM
- TGI [2]: > 100 µM
- TGI [3]: > 100 µM
- TGI [4]: > 100 µM
- TGI [5]: > 100 µM
- TGI [6]: > 100 µM
- TGI [7]: > 100 µM
- TGI [8]: > 100 µM
- TGI [9]: > 100 µM
- TGI [10]: > 100 µM
- TGI [11]: > 100 µM

SMILES: O=C(O)CN(CC(=O)O)C(C(=O)O)c1ccccc1 (centres undefined)
- TGI [1]: > 100 µM
- TGI [2]: > 100 µM
- TGI [3]: > 100 µM
- TGI [4]: > 100 µM
- TGI [5]: > 100 µM
- TGI [6]: > 100 µM
- TGI [7]: > 100 µM
- TGI [8]: > 100 µM
- TGI [9]: > 100 µM
- TGI [10]: > 100 µM
- TGI [11]: > 100 µM
